Laboratory results: patent publication US20030212051A1, “Bile acid containing prodrugs with enhanced bioavailabilty” (priority 2003, published 2003)
Where a name gives a salt, the structure may show the parent alone. Read-outs that look alike come from different tables or passages of the source. Each block holds one molecule with its values, some of them ahead of it.

Experiments:
Caco-2 monolayers = settings: across Caco-2 monolayers; example value for reference marker; cited from earlier work
[1] = molecular target: T1, human intestinal bile acid transporter (hIBAT) (Homo sapiens, UniProt Q12908); test: Competitive inhibition of 3H-taurocholate uptake in COS-hIBAT cells; type: cell-based; settings: for inhibition of 3H-taurocholate uptake / interaction with hIBAT (in words): COS-hIBAT cells, 0.25 μM 3H-taurocholate, valacyclovir 10 to 600 μM, atenolol 10 to 200 μM, glycine and taurine 50 to 200 μM, bile acids 1 to 100 μM; for Ki: COS-7 cells transfected with hIBAT, HBSS with sodium, value (±SEM)
T1 construct: expressed in transfected cells; host or cells: COS-7 cells, transient transfection with pCMV5-hIBAT (LipofectAMINE 2000)
T1 sequence (Q12908 1-348): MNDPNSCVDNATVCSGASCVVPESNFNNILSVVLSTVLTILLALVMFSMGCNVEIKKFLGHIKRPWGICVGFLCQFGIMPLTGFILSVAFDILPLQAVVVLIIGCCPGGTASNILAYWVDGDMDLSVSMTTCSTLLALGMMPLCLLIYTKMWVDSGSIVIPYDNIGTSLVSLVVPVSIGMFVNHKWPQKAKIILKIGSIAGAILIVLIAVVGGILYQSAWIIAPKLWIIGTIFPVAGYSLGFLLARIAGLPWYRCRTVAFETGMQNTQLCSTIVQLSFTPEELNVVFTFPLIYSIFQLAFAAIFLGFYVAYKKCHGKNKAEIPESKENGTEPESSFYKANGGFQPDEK
Method: Cell dilutions are streaked on nutrient agar plates containing 50 μg/ml ampicillin, and incubated at 37° C. overnight. Isolated colonies are selected aseptically, and are used to inoculate a 200 ml nutrient broth culture containing 50 μg/ml ampicillin. […] After an isopropanol precipitation and ethanol wash, the DNA is reconstituted in 600 μl of sterile deionized water. […] Cells are transfected at 24 hours post seeding. For each well transfected, 0.8 μg hIBAT cDNA is combined with LipofectAMINE 2000 reagent and incubated at room temperature for 20 minutes to allow complexes to form. A volume of 100 μl of hIBAT-lipid complex is added to each well of cells.
Uptake studies are performed on COS-hIBAT cells at 24 hours post-transfection. […] Because bile acid transport is sodium dependent, this MHBSS approach allows for the simple modification of the uptake buffer to exclude all sources of sodium, and thus enables for a control uptake assay under sodium-free conditions.
Incubation conditions and analysis are performed as described for the Km and Vmax studies. The following equation (Formula 2) is used to estimate the Ki for a series of naturally occurring bile acids: [formula]
Inhibition studies are performed in triplicate.

[2] = molecular target: T2, human intestinal peptide transporter (PepT1) (Homo sapiens, UniProt P46059); settings: stable lines of CHO/PepT1; cited from earlier work
T2 sequence (P46059 1-708): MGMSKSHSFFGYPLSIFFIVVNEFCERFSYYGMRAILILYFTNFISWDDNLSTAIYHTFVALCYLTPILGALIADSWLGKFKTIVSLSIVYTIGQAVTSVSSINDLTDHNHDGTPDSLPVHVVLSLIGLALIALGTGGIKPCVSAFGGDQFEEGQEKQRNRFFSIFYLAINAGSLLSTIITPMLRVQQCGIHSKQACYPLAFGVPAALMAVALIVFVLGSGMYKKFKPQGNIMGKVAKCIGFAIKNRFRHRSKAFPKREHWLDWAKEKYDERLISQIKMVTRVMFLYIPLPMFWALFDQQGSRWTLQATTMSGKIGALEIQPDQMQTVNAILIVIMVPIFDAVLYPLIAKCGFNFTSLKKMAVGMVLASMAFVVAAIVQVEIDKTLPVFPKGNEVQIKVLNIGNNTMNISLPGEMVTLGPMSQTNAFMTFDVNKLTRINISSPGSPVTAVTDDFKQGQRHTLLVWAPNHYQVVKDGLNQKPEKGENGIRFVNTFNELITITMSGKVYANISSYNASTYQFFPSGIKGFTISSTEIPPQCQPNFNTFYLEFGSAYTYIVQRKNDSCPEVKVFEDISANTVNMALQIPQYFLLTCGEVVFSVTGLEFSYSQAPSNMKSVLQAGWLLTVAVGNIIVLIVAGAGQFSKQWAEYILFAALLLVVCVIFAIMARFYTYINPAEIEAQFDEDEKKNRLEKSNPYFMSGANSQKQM

[3] = cited from earlier work
[4] = read-out: Ki, inhibition of 3H-taurocholate uptake

SMILES: COCCc1ccc(OCC(O)CNC(C)C)cc1 (centres unmarked) [metoprolol tartrate]
- permeability (Caco-2 monolayers): 40 ×10⁻⁶ cm/s

SMILES: C[C@H](CCC(=O)O)[C@H]1CC[C@H]2[C@@H]3CC[C@@H]4C[C@H](O)CC[C@]4(C)[C@H]3CC[C@]12C [lithocholate]
- inhibition of 3H-taurocholate uptake / interaction with hIBAT (in words) [1]: never reaches 50% maximal velocity

SMILES: CC(C)[C@H](N)C(=O)OCCOCn1cnc2c(=O)[nH]c(N)nc21 [valacyclovir]
- Ki [2]: 1100 µM
- inhibition of 3H-taurocholate uptake / interaction with hIBAT (in words) [1]: no inhibition
- inhibition of 3H-taurocholate uptake / interaction with hIBAT (in words) ([1]; listed as Valacyclovir): do not inhibit
- bioavailability after oral administration [3]: 54%

Continued, values first:

- inhibition of 3H-taurocholate uptake / interaction with hIBAT (in words) [1]: not reduced
SMILES: NCCS(=O)(=O)O [taurine]

- Ki [1]: 5.4 µM
SMILES: C[C@H](CCC(=O)O)[C@H]1CC[C@H]2[C@@H]3[C@H](O)C[C@@H]4C[C@H](O)CC[C@]4(C)[C@H]3CC[C@]12C [chenodeoxycholate]

- Ki [1, 4]: 35.6 µM
SMILES: CC(C)[C@H](NC(=O)CC[C@@H](C)[C@H]1CC[C@H]2[C@@H]3[C@H](O)C[C@@H]4C[C@H](O)CC[C@]4(C)[C@H]3CC[C@]12C)C(=O)OCCOCn1cnc2c(=O)[nH]c(N)nc21 [acyclovir valylchenodeoxycholate]

- inhibition of 3H-taurocholate uptake / interaction with hIBAT (in words) [1]: not reduced
SMILES: NCC(=O)O [glycine]

- Ki [1, 4]: 401 µM
SMILES: CC(C)C(NC(=O)CCC(C)C1CCC2C3CCC4CC(O)CCC4(C)C3CC(O)C12C)C(=O)OCCOCn1cnc2c(=O)[nH]c(N)nc21 (centres unmarked) [acyclovir valyldeoxycholate]
